In PubChem BioAssay (NCI):
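Values below derive from 48-hour exposures of cells grown in 96-well plates, with endpoints linearly interpolated between the two concentrations bracketing the appropriate inhibition level. Definition used: TGI = concentration required for complete inhibition of growth.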

Assays:
Test in all cases: NCI anticancer screen, dose series, 48 h
OVCAR-5 ovarian = system: OVCAR-5 ovarian
CAKI-1 renal = system: CAKI-1 renal
SNB-19 CNS = system: SNB-19 CNS
LOX IMVI melanoma = system: LOX IMVI melanoma
NCI-H226 lung = system: NCI-H226 lung
HOP-92 NSCLC = system: HOP-92 NSCLC
SNB-78 CNS = system: SNB-78 CNS
HCC-2998 colon = system: HCC-2998 colon
MOLT-4 leukemia = system: MOLT-4 leukemia
SK-MEL-2 melanoma = system: SK-MEL-2 melanoma
SF-295 CNS = system: SF-295 CNS
OVCAR-4 ovarian = system: OVCAR-4 ovarian
A549 NSCLC = system: A549 NSCLC
K-562 leukemia = system: K-562 leukemia
TK-10 renal = system: TK-10 renal
M19-MEL melanoma = system: M19-MEL melanoma
SR leukemia = system: SR leukemia
SF-268 CNS = system: SF-268 CNS
ACHN renal = system: ACHN renal
RPMI-8226 leukemia = system: RPMI-8226 leukemia
MALME-3M melanoma = system: MALME-3M melanoma
NCI-H460 lung = system: NCI-H460 lung
HL-60(TB) leukemia = system: HL-60(TB) leukemia
COLO 205 colon = system: COLO 205 colon
LXFL 529 NSCLC = system: LXFL 529 NSCLC
SF-539 CNS = system: SF-539 CNS
A498 renal = system: A498 renal
OVCAR-3 ovarian = system: OVCAR-3 ovarian
XF 498 CNS = system: XF 498 CNS
SNB-75 CNS = system: SNB-75 CNS
UACC-62 melanoma = system: UACC-62 melanoma
HT29 colon = system: HT29 colon
OVCAR-8 ovarian = system: OVCAR-8 ovarian
M14 melanoma = system: M14 melanoma
SK-MEL-5 melanoma = system: SK-MEL-5 melanoma
HCT-15 colon = system: HCT-15 colon
DMS 114 small cell lung = system: DMS 114 small cell lung
KM12 colon = system: KM12 colon
SN12C renal = system: SN12C renal
SK-MEL-28 melanoma = system: SK-MEL-28 melanoma
EKVX NSCLC = system: EKVX NSCLC
RXF 393 renal = system: RXF 393 renal
UACC-257 melanoma = system: UACC-257 melanoma
UO-31 renal = system: UO-31 renal
NCI-H23 lung = system: NCI-H23 lung
IGROV1 ovarian = system: IGROV1 ovarian
DLD-1 colon = system: DLD-1 colon
CCRF-CEM leukemia = system: CCRF-CEM leukemia
DMS 273 small cell lung = system: DMS 273 small cell lung
HOP-18 NSCLC = system: HOP-18 NSCLC
HOP-62 NSCLC = system: HOP-62 NSCLC
786-0 renal = system: 786-0 renal
HCT-116 colon = system: HCT-116 colon
KM20L2 colon = system: KM20L2 colon
U251 CNS = system: U251 CNS
SW-620 colon = system: SW-620 colon
NCI-H522 lung = system: NCI-H522 lung

C/C(CC(=O)Nc1ccc(Cl)c(Cl)c1)=N/NC(=O)C[N+](C)(C)C
TGI (OVCAR-5 ovarian): > 100 µM | TGI (CAKI-1 renal): > 100 µM | TGI (SNB-19 CNS): > 100 µM | TGI (LOX IMVI melanoma): 35.5 µM | TGI (NCI-H226 lung): > 100 µM | TGI (HOP-92 NSCLC): > 100 µM | TGI (SNB-78 CNS): > 100 µM | TGI (HCC-2998 colon): > 100 µM | TGI (MOLT-4 leukemia): > 100 µM | TGI (SK-MEL-2 melanoma): > 100 µM | TGI (SF-295 CNS): > 100 µM | TGI (OVCAR-4 ovarian): > 100 µM | TGI (A549 NSCLC): > 100 µM | TGI (K-562 leukemia): > 100 µM | TGI (TK-10 renal): > 100 µM | TGI (M19-MEL melanoma): > 100 µM | TGI (SR leukemia): 43.2 µM | TGI (SF-268 CNS): > 100 µM | TGI (ACHN renal): > 100 µM | TGI (RPMI-8226 leukemia): 63.4 µM | TGI (MALME-3M melanoma): > 100 µM | TGI (NCI-H460 lung): > 100 µM | TGI (HL-60(TB) leukemia): > 100 µM | TGI (COLO 205 colon): > 100 µM | TGI (LXFL 529 NSCLC): > 100 µM | TGI (SF-539 CNS): > 100 µM | TGI (A498 renal): > 100 µM | TGI (OVCAR-3 ovarian): > 100 µM | TGI (XF 498 CNS): > 100 µM | TGI (SNB-75 CNS): > 100 µM | TGI (UACC-62 melanoma): > 100 µM | TGI (HT29 colon): > 100 µM | TGI (OVCAR-8 ovarian): > 100 µM | TGI (M14 melanoma): > 100 µM | TGI (SK-MEL-5 melanoma): > 100 µM | TGI (HCT-15 colon): > 100 µM | TGI (DMS 114 small cell lung): 55.6 µM | TGI (KM12 colon): > 100 µM | TGI (SN12C renal): > 100 µM | TGI (SK-MEL-28 melanoma): > 100 µM | TGI (EKVX NSCLC): > 100 µM | TGI (RXF 393 renal): > 100 µM | TGI (UACC-257 melanoma): > 100 µM | TGI (UO-31 renal): > 100 µM | TGI (NCI-H23 lung): > 100 µM | TGI (IGROV1 ovarian): > 100 µM | TGI (DLD-1 colon): > 100 µM | TGI (CCRF-CEM leukemia): > 100 µM | TGI (DMS 273 small cell lung): > 100 µM | TGI (HOP-18 NSCLC): > 100 µM | TGI (HOP-62 NSCLC): > 100 µM | TGI (786-0 renal): > 100 µM | TGI (HCT-116 colon): > 100 µM | TGI (KM20L2 colon): > 100 µM

CCOC(=O)[C@H]1Nc2ccc(Cl)cc2[C@H]2CCC[C@@H]12
TGI (OVCAR-5 ovarian): > 100 µM | TGI (CAKI-1 renal): > 100 µM | TGI (SNB-19 CNS): > 100 µM | TGI (LOX IMVI melanoma): > 100 µM | TGI (NCI-H226 lung): > 100 µM | TGI (SNB-78 CNS): > 100 µM | TGI (HCC-2998 colon): > 100 µM | TGI (MOLT-4 leukemia): > 100 µM | TGI (SK-MEL-2 melanoma): > 100 µM | TGI (SF-295 CNS): > 100 µM | TGI (OVCAR-4 ovarian): > 100 µM | TGI (A549 NSCLC): > 100 µM | TGI (K-562 leukemia): > 100 µM | TGI (TK-10 renal): > 100 µM | TGI (M19-MEL melanoma): > 100 µM | TGI (SR leukemia): > 100 µM | TGI (U251 CNS): > 100 µM | TGI (SF-268 CNS): > 100 µM | TGI (ACHN renal): > 100 µM | TGI (RPMI-8226 leukemia): > 100 µM | TGI (MALME-3M melanoma): > 100 µM | TGI (NCI-H460 lung): > 100 µM | TGI (COLO 205 colon): > 100 µM | TGI (LXFL 529 NSCLC): > 100 µM | TGI (SF-539 CNS): > 100 µM | TGI (OVCAR-3 ovarian): > 100 µM | TGI (XF 498 CNS): > 100 µM | TGI (SNB-75 CNS): > 100 µM | TGI (UACC-62 melanoma): > 100 µM | TGI (HT29 colon): > 100 µM | TGI (OVCAR-8 ovarian): > 100 µM | TGI (M14 melanoma): > 100 µM | TGI (SW-620 colon): > 100 µM | TGI (SK-MEL-5 melanoma): > 100 µM | TGI (HCT-15 colon): > 100 µM | TGI (DMS 114 small cell lung): > 100 µM | TGI (KM12 colon): > 100 µM | TGI (SN12C renal): > 100 µM | TGI (SK-MEL-28 melanoma): > 100 µM | TGI (EKVX NSCLC): > 100 µM | TGI (RXF 393 renal): 64.4 µM | TGI (UACC-257 melanoma): 62.2 µM | TGI (UO-31 renal): > 100 µM | TGI (NCI-H23 lung): > 100 µM | TGI (IGROV1 ovarian): > 100 µM | TGI (DLD-1 colon): > 100 µM | TGI (DMS 273 small cell lung): > 100 µM | TGI (HOP-18 NSCLC): > 100 µM | TGI (HOP-62 NSCLC): > 100 µM | TGI (NCI-H522 lung): > 100 µM | TGI (786-0 renal): > 100 µM | TGI (HCT-116 colon): > 100 µM | TGI (KM20L2 colon): > 100 µM
